The values that follow come from US8927559B2, “Quinazolinone-type compounds as CRTH2 antagonists” (Merck Sharp & Dohme Corp., priority 2010, dated 2015).

In general, Ki refers to a dissociation constant, usually derived from enzyme kinetics or from competition with a known ligand.

“And” between values parts separate entries of the source, which are not always exact repeats. Equal entries are not always repeated.

The experiment deals with T1, CRTH2 receptor (hCRTH2) (Homo sapiens, UniProt Q9Y5Y4).
T1 construct: expressed in transfected cells; host or cells: HEK cells (HEK-hCRTH2 cell line), membranes
T1 sequence (Q9Y5Y4 1-395): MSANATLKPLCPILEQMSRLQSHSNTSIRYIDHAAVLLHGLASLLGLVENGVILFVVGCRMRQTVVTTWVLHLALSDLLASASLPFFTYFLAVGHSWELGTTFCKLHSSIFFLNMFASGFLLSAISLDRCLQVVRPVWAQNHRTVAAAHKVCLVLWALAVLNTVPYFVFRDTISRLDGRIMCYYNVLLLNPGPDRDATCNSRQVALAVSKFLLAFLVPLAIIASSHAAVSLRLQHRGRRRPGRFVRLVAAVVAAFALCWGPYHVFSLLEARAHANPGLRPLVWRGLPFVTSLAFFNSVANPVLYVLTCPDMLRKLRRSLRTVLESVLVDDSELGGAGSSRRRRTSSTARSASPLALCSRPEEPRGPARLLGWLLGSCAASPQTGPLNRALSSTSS
The experiment can be described thus: Radioligand binding assay ([3H]PGD2 competition, membranes of HEK-hCRTH2 cell line). Conditions: 3.0 nM [3H]PGD2, HEK-hCRTH2 membranes, 60 min, room temperature; read-out: Ki. The gist of the method: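 Membranes (8-20 μg protein) from HEK cells expressing human CRTH2 were incubated with [3H]PGD2 and competitor in 1% DMSO for 60 min at room temperature. Non-specific binding was defined with excess PGD2. Bound radioactivity was separated by filtration and counted by melt-on scintillation.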
In the case of `O=C(O)CCCCc1nc2cc(-c3cc(Cc4cnc5ccccc5n4)on3)ccc2c(=O)n1-c1ccc(F)cc1` [Example 25L], the Ki was not above 10 nM. `O=C(O)CCCCc1nc2cc(-c3cc(C(O)c4ccc5ccccc5c4)on3)ccc2c(=O)n1-c1ccc(F)cc1` (centres unmarked) [Example 25i]: the Ki is not above 10 nM. Consider `C[C@@]1(Cc2ccccc2)CC(c2ccc3c(=O)n(-c4ccc(F)cc4)c(CCCCC(=O)O)nc3c2)=NO1` [Example 26, (R)-5-(7-(5-benzyl-5-methyl-4,5-dihydroisoxazol-3-yl)-3-(4-fluorophenyl)-4-oxo-3,4-dihydroquinazolin-2-yl)pentanoic acid], for which the inhibition constant Ki is ≤ 10 nM and 7.4 nM.

With `C[C@@]1([C@@H](O)c2ccccc2)CC(c2ccc3c(=O)n(-c4ccc(F)cc4)c(CCCCC(=O)O)nc3c2)=NO1` [Example 26C], the Ki was in the range of 10 to 50 nM. Consider `C[C@]1([C@@H](O)c2ccccc2)CC(c2ccc3c(=O)n(-c4ccc(F)cc4)c(CCCCC(=O)O)nc3c2)=NO1` [Example 26D], for which the Ki lay within 10 to 50 nM. `C[C@]1(Cc2ccccc2)CC(c2ccc3c(=O)n(-c4ccc(F)cc4)c(CCCCC(=O)O)nc3c2)=NO1` [Example 26E]: the Ki was not above 10 nM. Next, `C[C@@]1([C@H](O)c2ccccc2)CC(c2ccc3c(=O)n(-c4ccc(F)cc4)c(CCCCC(=O)O)nc3c2)=NO1` [Example 26F]: not above 10 nM; `C[C@]1([C@H](O)c2ccccc2)CC(c2ccc3c(=O)n(-c4ccc(F)cc4)c(CCCCC(=O)O)nc3c2)=NO1` [Example 26G]: 10 to 50 nM; `C[C@@]1([C@H](O)c2ccccc2)CC(c2ccc3c(=O)n(-c4ccccc4)c(CCCCC(=O)O)nc3c2)=NO1` [Example 26J]: not above 10 nM. Consider `C[C@]1([C@H](O)c2ccccc2)CC(c2ccc3c(=O)n(-c4ccccc4)c(CCCCC(=O)O)nc3c2)=NO1` [Example 26K], for which the Ki is 10 to 50 nM. Next, `C[C@]1(Cc2ccccc2)CC(c2ccc3c(=O)n(-c4ccccc4)c(CCCCC(=O)O)nc3c2)=NO1` [Example 26L]: 10 to 50 nM; `C[C@@]1(Cc2ccccc2)CC(c2ccc3c(=O)n(-c4ccccc4)c(CCCCC(=O)O)nc3c2)=NO1` [Example 26M]: not above 10 nM; `C[C@@]1([C@@H](O)c2ccccc2)CC(c2ccc3c(=O)n(-c4ccccc4)c(CCCCC(=O)O)nc3c2)=NO1` [Example 26i]: 10 to 50 nM. For the compound `O=C(O)CCCCc1nc2cc(C3=NOC(c4nc5ccccc5o4)C3)ccc2c(=O)n1-c1ccc(F)cc1` (centres unmarked) [Example 28, 5-(7-(5-(benzo[d]oxazol-2-yl)-4,5-dihydroisoxazol-3-yl)-3-(4-fluorophenyl)-4-oxo-3,4-dihydroquinazolin-2-yl)pentanoic acid], the Ki is not above 10 nM. With `O=C(O)CCCCc1nc2cc(-c3cc(-c4nc5ccccc5o4)on3)ccc2c(=O)n1-c1ccc(F)cc1` [Example 29], the Ki was not above 10 nM. For the compound `O=C(O)CCCCc1nc2cc(-c3cc(-c4ccccc4)no3)ccc2c(=O)n1-c1ccc(F)cc1` [Example 32], the Ki was 10 to 50 nM and 22.1 nM. Under `O=C(O)CCCCc1nc2cc(-c3cc(-c4ccc5ccccc5n4)on3)ccc2c(=O)n1-c1ccc(F)cc1` [Example 33] stands not above 10 nM; under `O=C(O)CCCCc1nc2cc(-c3noc(Cc4ccc(F)cc4)n3)ccc2c(=O)n1-c1ccc(F)cc1` [Example 36, 5-(7-(5-(4-fluorobenzyl)-1,2,4-oxadiazol-3-yl)-3-(4-fluorophenyl)-4-oxo-3,4-dihydroquinazolin-2-yl)pentanoic acid], not above 10 nM. Under `O=C(O)CCCCc1nc2cc(C3=NOC[C@@H](c4ccc(F)cc4)N3)ccc2c(=O)n1-c1ccc(F)cc1` [Example 37, (R)-5-(3-(4-fluorophenyl)-7-(5-(4-fluorophenyl)-5,6-dihydro-4H-1,2,4-oxadiazin-3-yl)-4-oxo-3,4-dihydroquinazolin-2-yl)pentanoic acid] stands not above 10 nM.

On to `O=C(O)CCCCc1nc2cc(C3=NOC[C@H](c4ccc(F)cc4)N3)ccc2c(=O)n1-c1ccc(F)cc1` [Example 37E], for which the Ki is not above 10 nM. For the compound `O=C(O)CCCCc1nc2cc(-c3cc(CSc4nc5cc(OC(F)F)ccc5[nH]4)on3)ccc2c(=O)n1-c1ccc(F)cc1` [Example 39, 5-(7-(5-((5-(difluoromethoxy)-1H-benzo[d]imidazol-2-ylthio)methyl)isoxazol-3-yl)-3-(4-fluorophenyl)-4-oxo-3,4-dihydroquinazolin-2-yl)pentanoic acid], the Ki was in the range of 10 to 50 nM.

`O=C(O)CCCCc1nc2cc(-c3cc(CS(=O)(=O)c4nc5cc(OC(F)F)ccc5[nH]4)on3)ccc2c(=O)n1-c1ccc(F)cc1` [Example 39E, 5-(7-(5-((5-(difluoromethoxy)-1H-benzo[d]imidazol-2-ylsulfonyl)methyl)isoxazol-3-yl)-3-(4-fluorophenyl)-4-oxo-3,4-dihydroquinazolin-2-yl)pentanoic acid]: the Ki lay within 10 to 50 nM.

As for `O=C(O)CCCCc1nc2cc(-c3cc(CSc4ccc(F)cc4)on3)ccc2c(=O)n1-c1ccc(F)cc1` [Example 39F], the Ki is not above 10 nM. As for `O=C(O)CCCCc1nc2cc(-c3cc(CSc4ccccn4)on3)ccc2c(=O)n1-c1ccc(F)cc1` [Example 39G], the Ki was in the range of 10 to 50 nM.

Turning to `COc1ccc2[nH]c(SCc3cc(-c4ccc5c(=O)n(-c6ccc(F)cc6)c(CCCCC(=O)O)nc5c4)no3)nc2c1` [Example 39H], the Ki lay within 10 to 50 nM. As to `O=C(O)CCCCc1nc2cc(-c3cc(CS(=O)(=O)c4ccccn4)on3)ccc2c(=O)n1-c1ccc(F)cc1` [Example 39I], the Ki fell in the range of 10 to 50 nM. As to `COc1ccc2[nH]c(S(=O)(=O)Cc3cc(-c4ccc5c(=O)n(-c6ccc(F)cc6)c(CCCCC(=O)O)nc5c4)no3)nc2c1` [Example 39J], the Ki was not above 10 nM. Regarding `O=C(O)CCCCc1nc2cc(-c3cc(CSc4nc5ccccc5[nH]4)on3)ccc2c(=O)n1-c1ccc(F)cc1` [Example 39K], the Ki was not above 10 nM. In the case of `O=C(O)CCCCc1nc2cc(-c3cc(CS(=O)(=O)c4nc5ccccc5[nH]4)on3)ccc2c(=O)n1-c1ccc(F)cc1` [Example 39L], the Ki is not above 10 nM. Next, `O=C(O)CCCCc1nc2cc(-c3cc(C[S+]([O-])c4nc5ccccc5[nH]4)on3)ccc2c(=O)n1-c1ccc(F)cc1` (centres unmarked) [Example 40, 5-(7-(5-((1H-benzo[d]imidazol-2-ylsulfinyl)methyl)isoxazol-3-yl)-3-(4-fluorophenyl)-4-oxo-3,4-dihydroquinazolin-2-yl)pentanoic acid]: 10 to 50 nM; `CCC1(c2ccccc2)CC(c2ccc3c(=O)n(-c4ccc(F)cc4)c(CCCCC(=O)O)nc3c2)=NO1` (centres unmarked) [Example 41]: not above 10 nM.

`CC[C@H](c1ccc(F)cc1)c1cc(-c2ccc3c(=O)n(-c4ccc(F)cc4)c(CCCCC(=O)O)nc3c2)no1` [Example 43, (R)-5-(3-(4-fluorophenyl)-7-(5-(1-(4-fluorophenyl)propyl)isoxazol-3-yl)-4-oxo-3,4-dihydroquinazolin-2-yl)pentanoic acid]: the Ki was not above 10 nM.

For `CC[C@@H](c1ccc(F)cc1)c1cc(-c2ccc3c(=O)n(-c4ccc(F)cc4)c(CCCCC(=O)O)nc3c2)no1` [Example 43D], the Ki was not above 10 nM. For `C[C@@H](OCc1ccc(F)cc1)c1cc(-c2ccc3c(=O)n(-c4ccc(F)cc4)c(CCCCC(=O)O)nc3c2)no1` [Example 44], the Ki is 10 to 50 nM and 32.6 nM.

As for `O=C(O)CCCCc1nc2cc(-c3cc(Cc4ccccc4)on3)ccc2c(=O)n1-c1ccc(F)cc1` [Example 100], the Ki is not above 10 nM. Next, `O=C(O)CCCCc1nc2cc(-c3cc([C@@H](O)c4ccccc4)on3)ccc2c(=O)n1-c1ccc(F)cc1` [Example 101]: not above 10 nM; `O=C(O)CCCCc1nc2cc(-c3cc([C@H](O)c4ccccc4)on3)ccc2c(=O)n1-c1ccc(F)cc1` [Example 102]: not above 10 nM. Next, `Cc1ccccc1-c1cc(-c2ccc3c(=O)n(-c4ccc(F)cc4)c(CCCCC(=O)O)nc3c2)no1` [Example 103]: not above 10 nM; `O=C(O)CCCCc1nc2cc(-c3noc(-c4ccc(C(F)(F)F)cc4)n3)ccc2c(=O)n1-c1ccc(F)cc1` [Example 104]: 10 to 50 nM. For `O=C(O)CCCCc1nc2cc(-c3cn(-c4ccc(F)cc4)nn3)ccc2c(=O)n1-c1ccc(F)cc1` [Example 105], the Ki is not above 10 nM. With `O=C(O)CCCCc1nc2cc(-c3cc(CN4CCc5ccccc54)on3)ccc2c(=O)n1-c1ccc(F)cc1` [Example 106], the Ki is not above 10 nM. Consider `O=C(O)CCCCc1nc2cc(-c3cc(Cn4ccccc4=O)on3)ccc2c(=O)n1-c1ccc(F)cc1` [Example 107], for which the inhibitory constant (Ki) is not above 10 nM. `CC(CCCc1nc2cc(C3=NOC(C)(c4nc5ccccc5o4)C3)ccc2c(=O)n1-c1ccc(F)cc1)C(=O)O` (centres unmarked) [Example 108]: the inhibition constant (Ki) was not above 10 nM.

Regarding `CC(CCCc1nc2cc(C3=NOC(C)([C@H](O)c4ccccc4)C3)ccc2c(=O)n1-c1ccc(F)cc1)C(=O)O` (some centres unmarked) [Example 109], the Ki is 10 to 50 nM. Under `CC(CCCc1nc2cc(C3=NOC(C)([C@@H](O)c4ccccc4)C3)ccc2c(=O)n1-c1ccc(F)cc1)C(=O)O` (some centres unmarked) [Example 110] stands 10 to 50 nM. In the case of `O=C(O)CCCCc1nc2cc(-c3cc(Cn4nnc5ccccc54)on3)ccc2c(=O)n1-c1ccc(F)cc1` [Example 111], the Ki was not above 10 nM. With `N#CC1CC2(CC(c3ccc4c(=O)n(-c5ccc(F)cc5)c(CCCCC(=O)O)nc4c3)=NO2)C1` (centres unmarked) [Example 112], the Ki is not above 10 nM.
